Measurements as given in PubChem BioAssay (NCI).
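These data come from cells grown in 96-well plates and exposed to compound for 48 hours at five concentrations. Abbreviation: GI50, concentration required for 50% inhibition of growth. TGI: concentration producing complete growth inhibition.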

Legend:
Assay in all cases: growth of human tumour cells (NCI), 48 h
MOLT-4 leukemia = system: MOLT-4 leukemia
CAKI-1 renal = system: CAKI-1 renal
UACC-257 melanoma = system: UACC-257 melanoma
SK-MEL-5 melanoma = system: SK-MEL-5 melanoma
SF-295 CNS = system: SF-295 CNS
NCI-H522 lung = system: NCI-H522 lung
LOX IMVI melanoma = system: LOX IMVI melanoma
SN12C renal = system: SN12C renal
SW-620 colon = system: SW-620 colon
KM12 colon = system: KM12 colon
MALME-3M melanoma = system: MALME-3M melanoma
SK-OV-3 ovarian = system: SK-OV-3 ovarian
HT29 colon = system: HT29 colon
SNB-19 CNS = system: SNB-19 CNS
OVCAR-5 ovarian = system: OVCAR-5 ovarian
HL-60(TB) leukemia = system: HL-60(TB) leukemia
OVCAR-8 ovarian = system: OVCAR-8 ovarian
BT-549 breast = system: BT-549 breast
SK-MEL-2 melanoma = system: SK-MEL-2 melanoma
PC-3 prostate = system: PC-3 prostate
MDA-MB-435 = system: MDA-MB-435
K-562 leukemia = system: K-562 leukemia
SF-268 CNS = system: SF-268 CNS
SK-MEL-28 melanoma = system: SK-MEL-28 melanoma
MCF7 breast = system: MCF7 breast
COLO 205 colon = system: COLO 205 colon
MDA-MB-468 breast = system: MDA-MB-468 breast
CCRF-CEM leukemia = system: CCRF-CEM leukemia
SNB-75 CNS = system: SNB-75 CNS
NCI-H23 lung = system: NCI-H23 lung
M14 melanoma = system: M14 melanoma
OVCAR-3 ovarian = system: OVCAR-3 ovarian
NCI-H460 lung = system: NCI-H460 lung
A498 renal = system: A498 renal
TK-10 renal = system: TK-10 renal
SR leukemia = system: SR leukemia
HCT-116 colon = system: HCT-116 colon
HCT-15 colon = system: HCT-15 colon
DU-145 prostate = system: DU-145 prostate
T-47D breast = system: T-47D breast
NCI/ADR-RES ovarian = system: NCI/ADR-RES ovarian
OVCAR-4 ovarian = system: OVCAR-4 ovarian
NCI-H226 lung = system: NCI-H226 lung
U251 CNS = system: U251 CNS
SF-539 CNS = system: SF-539 CNS
RPMI-8226 leukemia = system: RPMI-8226 leukemia
HOP-62 NSCLC = system: HOP-62 NSCLC
786-0 renal = system: 786-0 renal
UACC-62 melanoma = system: UACC-62 melanoma
ACHN renal = system: ACHN renal
MDA-MB-231 breast = system: MDA-MB-231 breast
UO-31 renal = system: UO-31 renal
RXF 393 renal = system: RXF 393 renal
HS 578T breast = system: HS 578T breast
IGROV1 ovarian = system: IGROV1 ovarian
EKVX NSCLC = system: EKVX NSCLC
A549 NSCLC = system: A549 NSCLC
HCC-2998 colon = system: HCC-2998 colon
HOP-92 NSCLC = system: HOP-92 NSCLC

## CCCCCc1ccc(S(=O)(=O)N(C(C)=O)c2cc(-c3csc(N(C)C(C)=O)n3)ccc2N2CCN(C)CC2)cc1
MOLT-4 leukemia
  GI50: 2310 nM
  TGI: 11.1 µM
CAKI-1 renal
  GI50: 6.19 µM
  TGI: 13.6 µM
UACC-257 melanoma
  GI50: 7.51 µM
  TGI: 15.5 µM
SK-MEL-5 melanoma
  GI50: 7.04 µM
  TGI: 14.4 µM
SF-295 CNS
  GI50: 2560 nM
  TGI: 10.2 µM
NCI-H522 lung
  GI50: 8.69 µM
  TGI: 17.3 µM
LOX IMVI melanoma
  GI50: 1010 nM
  TGI: 1900 nM
SN12C renal
  GI50: 7.7 µM
  TGI: 16.2 µM
SW-620 colon
  GI50: 1510 nM
  TGI: 5.99 µM
KM12 colon
  GI50: 7.83 µM
  TGI: 17.2 µM
MALME-3M melanoma
  GI50: 7.61 µM
  TGI: 15.3 µM
SK-OV-3 ovarian
  GI50: 9.9 µM
  TGI: 18.1 µM
HT29 colon
  GI50: 2110 nM
  TGI: 7.89 µM
SNB-19 CNS
  GI50: 8.81 µM
  TGI: 16.6 µM
OVCAR-5 ovarian
  GI50: 8.44 µM
  TGI: 16.2 µM
HL-60(TB) leukemia
  GI50: 1570 nM
  TGI: 6.24 µM
OVCAR-8 ovarian
  GI50: 9.42 µM
  TGI: 19.5 µM
BT-549 breast
  GI50: 8.89 µM
  TGI: 17.9 µM
SK-MEL-2 melanoma
  GI50: 10.2 µM
  TGI: 19 µM
PC-3 prostate
  GI50: 6.48 µM
  TGI: 16.3 µM
MDA-MB-435
  GI50: 2970 nM
  TGI: 11.4 µM
K-562 leukemia
  GI50: 1530 nM
  TGI: 59.3 µM
SF-268 CNS
  GI50: 7.35 µM
  TGI: 18 µM
SK-MEL-28 melanoma
  GI50: 7.98 µM
  TGI: 15.6 µM
MCF7 breast
  GI50: 2220 nM
  TGI: 8.7 µM
COLO 205 colon
  GI50: 6.54 µM
  TGI: 15.5 µM
MDA-MB-468 breast
  GI50: 2990 nM
  TGI: 11.9 µM
CCRF-CEM leukemia
  GI50: 3.63 µM
  TGI: 13.7 µM
SNB-75 CNS
  GI50: 6.47 µM
  TGI: 14.2 µM
NCI-H23 lung
  GI50: 8.92 µM
  TGI: 17.3 µM
M14 melanoma
  GI50: 3.25 µM
  TGI: 12.2 µM
OVCAR-3 ovarian
  GI50: 6.4 µM
  TGI: 15.1 µM
NCI-H460 lung
  GI50: 1700 nM
  TGI: 6.22 µM
A498 renal
  GI50: 8.43 µM
  TGI: 16.2 µM
TK-10 renal
  GI50: 9.62 µM
  TGI: 17.9 µM
SR leukemia
  GI50: 1230 nM
  TGI: 4.07 µM
HCT-116 colon
  GI50: 2170 nM
  TGI: 8.36 µM
HCT-15 colon
  GI50: 2130 nM
  TGI: 8.02 µM
DU-145 prostate
  GI50: 7.52 µM
  TGI: 15.4 µM
T-47D breast
  GI50: 7.66 µM
  TGI: 18 µM
NCI/ADR-RES ovarian
  GI50: 8.01 µM
  TGI: 17.3 µM
OVCAR-4 ovarian
  GI50: 9.87 µM
  TGI: 23.6 µM
NCI-H226 lung
  GI50: 10.6 µM
  TGI: 24.1 µM
U251 CNS
  GI50: 7.12 µM
  TGI: 14.7 µM
SF-539 CNS
  GI50: 7.18 µM
  TGI: 14.5 µM
RPMI-8226 leukemia
  GI50: 4.61 µM
  TGI: 19.1 µM
HOP-62 NSCLC
  GI50: 8.71 µM
  TGI: 17 µM
786-0 renal
  GI50: 4.46 µM
  TGI: 13.5 µM
UACC-62 melanoma
  GI50: 9.44 µM
  TGI: 17.4 µM
ACHN renal
  GI50: 8.86 µM
  TGI: 16.7 µM
MDA-MB-231 breast
  GI50: 4.01 µM
  TGI: 11.8 µM
UO-31 renal
  GI50: 7.22 µM
  TGI: 14.6 µM
RXF 393 renal
  GI50: 3.99 µM
  TGI: 13.3 µM
HS 578T breast
  GI50: 8.77 µM
  TGI: 25.6 µM
IGROV1 ovarian
  GI50: 9.04 µM
  TGI: 16.9 µM
EKVX NSCLC
  GI50: 7.7 µM
  TGI: 15.8 µM
A549 NSCLC
  GI50: 6.37 µM
  TGI: 13.8 µM
HCC-2998 colon
  GI50: 6 µM
  TGI: 13.2 µM
HOP-92 NSCLC
  GI50: 5.97 µM
  TGI: 16 µM
